Results reported in ChEMBL document CHEMBL3507680, “University of Dundee, Gates Library screen for HepG2 cell viability”.

Test: Human HepG2 cell viability assay in 384 well format
Type: toxicity, cell-based
Design: dose 125 nL, time 70.5 hour; concentration not given beside the values
Conditions: HepG2 cells, read-out: Inhibition

Structure (SMILES) | cytotoxicity at 70.5 h [%]
COc1ccc(NC(=O)Cn2ccc3c(=O)n(C)ccc32)cc1OC | -3.38
COCCNC(=O)Cn1ccc2sc(C)cc2c1=O | -5.23
CNC(=O)c1ccccc1-c1ccc(S(C)(=O)=O)cc1 | -4.9
Cc1ccc(Oc2ncccc2C(=O)N(C)CC2OCCO2)c(C)c1 | -4.31
COc1ccc(C(=O)Nc2ccccc2C(C)C)c(OC)n1 | 5.28
O=C(NCCC1=CCCCC1)c1ccc(-n2cccc2)nc1 | -3.84
CC1CN(c2ncccc2C(=O)N[C@@H]2CCCc3ccccc32)CCN1 (stereo partly specified) | -4.37
CCOCCNC(=O)c1cccnc1N1CCCC1c1ccccn1 (stereo unspecified) | -8.32
CCCNc1ccc(C(=O)NCCc2ccc(Cl)cc2)cn1 | -5.63
O=C(NC[C@@H]1CCCO1)c1cc(Br)cnc1N1CCCCC1 | -1.68
COc1ccc2c(c1)C(=O)CC1(CCN(Cc3ccc(F)cc3)CC1)O2 | 21.7
COc1ccc2c(c1)OC1(CCN(Cc3ccccc3C)CC1)CC2=O | -3.9
COc1ccc2c(c1)OC1(CCN(Cc3cccc(C)c3)CC1)CC2=O | -2.19
O=C(NC[C@@H]1CCCO1)c1cccnc1N1CCCC1c1ccccc1 (stereo partly specified) | -5.49
CN(CCc1ccccc1)C(=O)c1cccnc1OCC(F)(F)F | 20
O=C(c1cccnc1SCc1ccccc1)N1CC[C@@H](O)C1 | 29.6
CCOCCNC(=O)c1cccnc1Sc1cc(OC)ccc1OC | 15.5
COc1ccc(OC)c(Sc2ncccc2C(=O)NCC2CC2)c1 | 24.9
COCCNC(=O)c1cccnc1Sc1cc(OC)ccc1OC | 11.2
CCCSc1ncccc1C(=O)NCc1ccc(N(C)C)cc1 | 18.5
CC1CCN(c2ncc(C#N)c(N)n2)CC1 | -3.5

Structure (SMILES) | cytotoxicity at 70.5 h [%]
Cc1ccc(-c2nnc(CN3CCN(c4ccccn4)CC3)o2)cc1 | 3.67
CC(=O)N1N=C(c2ccccc2)OC1C(=O)NCCOc1ccccc1 (stereo unspecified) | -3.08
CC(=O)N1N=C(Cc2ccccc2)OC1C(=O)NCC(C)C (stereo unspecified) | -1.89
Cc1cc(Cl)ccc1-n1ncc(C(=O)NCC2COC(C)(C)O2)c1N (stereo unspecified) | 23.9
CCOC(=O)C1CCN(C(=O)c2cnn(-c3ccccc3F)c2N)CC1 | -4.94
Cc1ccc(C)c(-n2ncc(C(=O)N(C)CCc3ccccn3)c2N)c1 | 4.61
CN1CCC(N(C)C(=O)c2cnn(-c3cc(F)ccc3F)c2N)CC1 | -0.483
CCOC(=O)CNC(=O)C1OC(c2ccccc2)=NN1C(C)=O (stereo unspecified) | -6.97
COc1ccc(NC(=O)C2OC(c3cccs3)=NN2C(C)=O)cc1OC (stereo unspecified) | 2.61
CC(=O)N1N=C(c2ccco2)OC1C(=O)N(CC(C)C)CC(C)C (stereo unspecified) | -1.96
CCN(CC)CCNC(=O)CCc1c(C)nn(-c2ccc(Cl)cc2)c1C | -7.15
Cc1nc(-c2ccoc2)n(CC(=O)N(C)CC(C)C)c1C | -4.77
Cc1cc(CN(C)CCC(O)c2ccccc2)no1 (stereo unspecified) | 1.83
CN(C)c1cc(N2CCN(c3ccccn3)CC2)ncn1 | 22.1
CC(=O)c1cc2ncc(C(=O)NC3CC3)cc2[nH]1 | 16
CC(=O)c1cc2ncc(C(=O)NC3CCCC3)cc2[nH]1 | -3.81
CCCNC(=O)c1cn(C(C)(C)C)c2ncccc12 | -1.86
CCOCCCNC(=O)c1cn(C(C)(C)C)c2ncccc12 | 20.9
CN(C)C(=O)c1cc(-c2ccncc2)[nH]n1 | -4.19
CNC(=O)c1cc(-c2ccccc2OC)[nH]n1 | -5.34
CCN(CC)CCNC(=O)CCc1c(C)nn(-c2ccccc2Cl)c1C | 16.4

Structure (SMILES) | cytotoxicity at 70.5 h [%]
CC(C)(Oc1ccc(C(N)=O)cc1)C(=O)N(CCC#N)C1CC1 | -1.36
CN(CCC#N)C(=O)C(C)(C)Oc1ccc(C(N)=O)cc1 | 20.4
COc1ccc2[nH]c(C(=O)NCC3(N)CCCC3)cc2c1 | -7.33
COc1ccc2c(c1)CN(CC1CC1)C(=O)CCN2CC(C)(C)O | 0.185
CC(C)(C)CN1Cc2cc3c(cc2NCCC1=O)OCO3 | 23.7
CCN1Cc2cc(OC)ccc2N(CC(C)(C)O)CCC1=O | -13
CC1(C)CNC(=O)CN(C(=O)COc2ccccc2)C1 | -14.2
CCN1CC(COc2ccccc2)Oc2ncccc2S1(=O)=O (stereo unspecified) | -3.66
CCN1CC(COc2ccc(OC)cc2)Oc2ccncc2S1(=O)=O (stereo unspecified) | -0.442
CCN1CC(COC(C)(C)C)Oc2ccncc2S1(=O)=O (stereo unspecified) | -4.84
CC(C)(C)OCC1CN(CC2CC2)S(=O)(=O)c2cnccc2O1 (stereo unspecified) | -4.79
CCOC(=O)[C@H]1[C@@H](O)C(=O)N(C)C12CCN(C(=O)OC)CC2 | 7.43
CCOC(=O)[C@@H]1[C@@H](O)C(=O)N(C)C12CCN(C(=O)OC)CC2 | -10.2
O=C1c2cccnc2OC(CN2CCOCC2)CN1CC1CC1 (stereo unspecified) | -1.18
O=C1c2cccnc2OC(CN2CCOCC2)CN1C1CCC1 (stereo unspecified) | -4.26
COCCN1C[C@H]2CCN(C(C)=O)CC[C@H]2S1(=O)=O | 0.94
Cc1nnc([C@@H]2C[C@H]3CN(C(=O)c4sccc4C)C[C@H]3O2)[nH]1 | -8.24
CC(C)CN1C[C@H]2CCN(C(=O)C3CCCO3)CC[C@H]2S1(=O)=O (stereo partly specified) | -8.39
CCN1C[C@H]2CCN(C(=O)C3CCCO3)CC[C@H]2S1(=O)=O (stereo partly specified) | -7.09
CNC(=O)[C@H]1CC[C@@H]2[C@@H](CCN2C(=O)N(C)C)O1 | -5.62
O=C(Nc1cc(F)ccc1OCC1CCCO1)NC1CC1 (stereo unspecified) | -8.4

Structure (SMILES) | cytotoxicity at 70.5 h [%]
c1ccc(CCCN2CCN(c3ccc4nncn4n3)CC2)cc1 | 0.863
CCNC(=O)N(C)C(c1ccccc1)c1ccccn1 (stereo unspecified) | -4.29
Cn1ccc(C(=O)Nc2cc(F)ccc2OCC2CCCO2)cc1=O (stereo unspecified) | -8.3
O=C(Nc1cc(F)ccc1OCC1CCCO1)N1CCSCC1 (stereo unspecified) | 0.0557
NC(=O)c1cc(C2CCCN(C(=O)CCc3ccccn3)C2)n[nH]1 (stereo unspecified) | -3.73
CCOCC(O)CN1CCN(C(=O)c2cc(C)ccc2OC)CC1 (stereo unspecified) | -5.99
NCCc1cn(Cc2ccccn2)c2ccccc12 | -5.82
NCCC(=O)Nc1ccc(-c2ccccc2)cc1 | -5.02
NC(=O)N1CCc2cc(C(=O)O)c(-c3ccsc3)nc2CC1 | -6.4
O=S(=O)(C1CC1)N1Cc2[nH]nc(COCC3CC3)c2C1 | -6.81
CN(Cc1cccs1)C1CCC[C@@H]2CN(C(N)=O)C[C@H]12 (stereo partly specified) | -10.5
CCN1CCC2(CC1)C(=O)N(c1ccc(C)nc1)CCN2CC(C)C | -3
O=C(O)c1c(-c2ccoc2)ncc2c1CCN(C1CCOC1)C2 (stereo unspecified) | -2.3
Cc1cc(CN2C[C@@H](C)[C@@]3(CCN(CC(=O)N(C)C)C3=O)C2)oc1C | -4.41
Cn1cc(CN2C[C@H]3CCC[C@@H](CNc4nccn4C)[C@H]3C2)cn1 | -3.76
Cn1ccnc1NC[C@@H]1CCC[C@@H]2CN(CC3CC3)C[C@@H]21 | -9.55
O=C(O)c1cc2c(nc1-c1ccsc1)CCN(C(=O)C1CC1)CC2 | -7.32
CN1Cc2[nH]nc(COCC3CC3)c2C1 | -11.3
